Measurements published in the supplement of paper PMC10331698.
± gives the standard deviation of the averaged measurements.

Key:
Experiment in all cases: level (log10 ratio to DMSO vehicle control); higher = higher biomarker level / cell amount than vehicle control
Conditions in all cases: in DMSO
[1] = compound: CCN(CCO)S(=O)(=O)C(F)(F)C(F)(F)C(F)(F)C(F)(F)C(F)(F)C(F)(F)C(F)(F)C(F)(F)F [N-Ethyl-N-(2-hydroxyethyl)perfluorooctanesulfonamide]
Experimental: (§1)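 BioMAP Diversity Plus panel of 12 human primary cell co-culture systems (3C, 4H, LPS, SAg, BT, BF4T, BE3C, CASM3C, HDF3CGF, KF3CT, MyoF, Mphg). Compounds were added 1 h before stimulation and left for 24 h (MyoF 48 h; BT 72 h for soluble read-outs or 6 d for IgG). Biomarkers were read by ELISA, cytotoxicity by SRB, PBMC viability and proliferation by Alamar Blue. Each well value was divided by the mean of 8 DMSO control wells on the same plate and log10 transformed; duplicate blinded samples were tested at 4 concentrations.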

[2] = compound: COC(=O)CCC(F)(F)C(F)(F)C(F)(F)C(F)(F)F [Methyl 2H,2H,3H,3H-perfluoroheptanoate]
Experimental: as §1

[3] = compound: FC(F)(F)C(F)(C(F)(F)F)C(F)(F)C(F)(F)CC1CO1 [3-(Perfluoro-3-methylbutyl)-1,2-propenoxide]
Experimental: as §1

[4] = compound: FC(F)(F)C(F)(F)C(F)(F)C(F)(F)C(F)(F)C(F)(F)C(F)(F)C(F)(F)CCS [2-(Perfluorooctyl)ethanthiol]
Experimental: as §1

[5] = compound: FC(F)(F)C(F)(F)C(F)(F)C(F)(F)C(F)(F)CCI [1-Iodo-1H,1H,2H,2H-perfluoroheptane]
Experimental: as §1

Perfluorodecanoic acid = compound: O=C(O)C(F)(F)C(F)(F)C(F)(F)C(F)(F)C(F)(F)C(F)(F)C(F)(F)C(F)(F)C(F)(F)F [Perfluorodecanoic acid]
Experimental: as §1

Perfluorobutanoic acid = compound: O=C(O)C(F)(F)C(F)(F)C(F)(F)F [Perfluorobutanoic acid]
Experimental: as §1

[6] = compound: OCCC(F)(F)C(F)(F)C(F)(F)C(F)(F)C(F)(F)C(F)(F)F [6:2 Fluorotelomer alcohol]
Experimental: as §1

| Test System | level (log10) ([1]; 6700 nM) | level (log10) ([1]; 20000 nM) | level (log10) ([2]; 6700 nM) | level (log10) ([2]; 20000 nM) | level (log10) ([2]; 60000 nM) | level (log10) ([3]; 6700 nM) | level (log10) ([3]; 20000 nM) | level (log10) ([4]; 6700 nM) | level (log10) ([4]; 20000 nM) | level (log10) ([5]; 6700 nM) | level (log10) ([5]; 20000 nM) | level (log10) ([5]; 60000 nM) | level (log10) (Perfluorodecanoic acid; 6700 nM) | level (log10) (Perfluorodecanoic acid; 20000 nM) | level (log10) (Perfluorobutanoic acid; 6700 nM) | level (log10) (Perfluorobutanoic acid; 20000 nM) | level (log10) (Perfluorobutanoic acid; 60000 nM) | level (log10) ([6]; 6700 nM) | level (log10) ([6]; 20000 nM) |
| --- | --- | --- | --- | --- | --- | --- | --- | --- | --- | --- | --- | --- | --- | --- | --- | --- | --- | --- | --- |
| 3C:CD106/VCAM-1 | 0.0005 ± 0.005 | 0.005 ± 0.0085 | -0.0175 ± 0.028 | -0.0125 ± 0.013 | 0.0065 ± 0.005 | -0.0275 ± 0.019 | -0.0005 ± 0.013 | -0.016 ± 0.027 | -0.0105 ± 0.036 | -0.01 ± 0.0028 | -0.02 ± 0.0042 | -0.0205 ± 0.022 | -0.0005 ± 0.012 | -0.001 ± 0.021 | -0.002 ± 0.0028 | -0.009 ± 0.0071 | -0.0225 ± 0.011 | 0.0025 ± 0.0092 | -0.0075 ± 0.0021 |
| CASM3C:LDLR | -0.076 ± 0.0057 | -0.223 ± 0.021 | 0.016 ± 0.0099 | 0.0095 ± 0.005 | 0.033 ± 0.028 | -0.012 ± 0.017 | -0.002 ± 0.011 | -0.025 ± 0.04 | -0.0505 ± 0.0092 | 0.0005 ± 0.011 | 0.009 | 0.013 ± 0.016 | -0.0045 ± 0.0078 | 0.0105 ± 0.03 | -0.013 ± 0.028 | -0.018 ± 0.02 | 0.0095 ± 0.015 | 0.031 ± 0.011 | 0.023 ± 0.0028 |
| HDF3CGF:CXCL11/I-TAC | -0.0535 ± 0.046 | -0.172 ± 0.041 | -0.002 ± 0.013 | 0.0215 ± 0.0021 | -0.0055 ± 0.011 | -0.0005 ± 0.079 | -0.0275 ± 0.087 | -0.0135 ± 0.028 | -0.0355 ± 0.0092 | -0.0155 ± 0.00071 | -0.027 ± 0.0042 | -0.143 ± 0.042 | 0.046 ± 0.0014 | -0.469 ± 0.28 | 0.005 ± 0.016 | -0.0035 ± 0.011 | 0.001 ± 0.023 | 0.002 ± 0.0071 | 0.0155 ± 0.0035 |
| MyoF:Collagen III | -0.0045 ± 0.022 | -0.228 ± 0.17 | -0.0085 ± 0.0092 | -0.007 ± 0.0014 | -0.015 ± 0.0057 | -0.004 ± 0.0099 | -0.0275 ± 0.0078 | -0.0105 ± 0.015 | -0.0345 ± 0.018 | 0.0085 ± 0.029 | 0.0185 ± 0.0092 | 0.041 ± 0.013 | -0.028 ± 0.03 | -0.36 ± 0.066 | -0.0155 ± 0.016 | 0.0025 ± 0.011 | -0.0145 ± 0.025 | 0.003 ± 0.016 | -0.005 ± 0.0014 |
| lMphg:sIL-10 | 0 ± 0.024 | -0.0505 ± 0.028 | -0.0515 ± 0.029 | -0.117 ± 0.12 | 0.0005 ± 0.037 | -0.005 ± 0.028 | -0.04 ± 0.013 | -0.122 ± 0.065 | 0.0325 ± 0.046 | 0.003 ± 0.033 | 0.01 ± 0.017 | -0.114 ± 0.062 | -0.018 ± 0.055 | -0.036 ± 0.028 | 0.034 ± 0.013 | -0.005 ± 0.03 | -0.02 ± 0.037 | -0.032 ± 0.02 | -0.143 ± 0.041 |
| 3C:CD54/ICAM-1 | 0.03 ± 0.013 | 0.075 ± 0.065 | -0.0175 ± 0.0078 | -0.017 | 0.002 ± 0.017 | -0.0055 ± 0.00071 | -0.0025 ± 0.0064 | -0.0055 ± 0.012 | 0.0005 ± 0.016 | 0.0055 ± 0.021 | 0.0015 ± 0.0092 | 0.0085 ± 0.005 | 0.0105 ± 0.0021 | 0.015 ± 0.0071 | -0.0185 ± 0.019 | -0.029 ± 0.017 | -0.03 ± 0.024 | -0.006 ± 0.013 | -0.0185 ± 0.044 |
| HDF3CGF:CXCL8/IL-8 | 0.0345 ± 0.016 | 0.011 ± 0.0071 | -0.006 ± 0.013 | -0.01 ± 0.024 | -0.0035 ± 0.0021 | 0.001 ± 0.013 | 0.006 ± 0.0028 | -0.004 ± 0.0099 | -0.0095 ± 0.00071 | 0.001 ± 0.0099 | 0.011 ± 0.0028 | 0.0225 ± 0.0064 | 0.0065 ± 0.005 | 0.02 ± 0.011 | -0.002 ± 0.0014 | -0.004 ± 0.0085 | 0.0015 ± 0.0021 | 0.004 ± 0.0028 | 0.004 |
| KF3CT:SRB | -0.015 | -0.0305 ± 0.0092 | -0.018 ± 0.016 | -0.0055 ± 0.005 | 0 ± 0.018 | -0.004 ± 0.0042 | -0.0085 ± 0.0064 | -0.0015 ± 0.0021 | 0.002 ± 0.0042 | 0.002 ± 0.0071 | -0.0045 ± 0.00071 | -0.0065 ± 0.0078 | -0.0325 ± 0.005 | -0.036 ± 0.0085 | -0.008 ± 0.0042 | -0.0005 ± 0.00071 | 0.006 ± 0.018 | -0.0085 ± 0.0078 | -0.0225 ± 0.005 |
| lMphg:CD62E/E-Selectin | 0.0935 ± 0.0078 | 0.14 ± 0.0099 | -0.004 ± 0.0028 | -0.0245 ± 0.016 | -0.0075 ± 0.018 | 0.0085 ± 0.019 | 0.0025 ± 0.013 | -0.013 ± 0.013 | -0.0295 ± 0.011 | -0.021 ± 0.067 | -0.0215 ± 0.018 | -0.028 ± 0.0028 | -0.026 ± 0.0028 | -0.0135 ± 0.011 | 0.0155 ± 0.036 | 0.027 ± 0.041 | 0.0175 ± 0.023 | -0.0545 ± 0.011 | 0.0005 ± 0.043 |
| 3C:CCL2/MCP-1 | -0.032 ± 0.016 | -0.145 ± 0.032 | 0.011 ± 0.0085 | 0.007 ± 0.013 | 0.0285 ± 0.028 | -0.0115 ± 0.0064 | -0.0125 ± 0.025 | 0.0045 ± 0.035 | 0.0135 ± 0.0078 | -0.0135 ± 0.0021 | -0.009 ± 0.0099 | 0.0045 ± 0.025 | 0.0065 ± 0.013 | -0.004 ± 0.0028 | 0.007 ± 0.0071 | 0.0075 ± 0.011 | 0.028 ± 0.025 | 0.008 ± 0.014 | -0.008 ± 0.0071 |
| CASM3C:CD87/uPAR | -0.0595 ± 0.0092 | -0.09 ± 0.038 | -0.029 ± 0.035 | -0.0275 ± 0.026 | -0.0185 ± 0.022 | -0.013 ± 0.016 | 0.002 ± 0.017 | -0.0395 ± 0.053 | -0.0205 ± 0.04 | 0.008 ± 0.016 | -0.0075 ± 0.0078 | -0.0265 ± 0.037 | -0.0055 ± 0.005 | 0.016 ± 0.011 | -0.005 ± 0.013 | 0.0095 ± 0.0021 | -0.0085 ± 0.026 | -0.026 ± 0.013 | -0.002 ± 0.0042 |
| HDF3CGF:M-CSF | -0.101 ± 0.013 | -0.27 ± 0.0071 | -0.0125 ± 0.0064 | -0.008 ± 0.013 | 0.002 ± 0.011 | -0.0115 ± 0.018 | -0.0145 ± 0.012 | -0.0185 ± 0.013 | -0.014 ± 0.0099 | -0.0275 ± 0.053 | -0.0415 ± 0.011 | -0.198 ± 0.11 | 0.023 ± 0.0057 | -0.275 ± 0.018 | 0.0025 ± 0.012 | 0.0055 ± 0.005 | 0.0035 ± 0.00071 | -0.009 ± 0.0099 | -0.0075 ± 0.0021 |
| KF3CT:CXCL9/MIG | 0.004 ± 0.0085 | -0.032 ± 0.013 | -0.003 ± 0.0057 | 0.004 ± 0.0042 | -0.02 ± 0.0028 | 0.005 ± 0.014 | 0.001 ± 0.013 | 0.016 ± 0.018 | 0.014 ± 0.0042 | 0.003 ± 0.0014 | 0.003 | 0.006 ± 0.0014 | 0.0065 ± 0.0078 | -0.0185 ± 0.0035 | 0 ± 0.0099 | 0.0015 ± 0.0021 | 0.0055 ± 0.022 | 0.0045 ± 0.0035 | 0.009 |
| 3C:CD141/Thrombomodulin | 0.046 ± 0.03 | 0.261 ± 0.14 | -0.0355 ± 0.032 | -0.017 ± 0.0042 | -0.0225 ± 0.013 | -0.001 ± 0.017 | -0.0245 ± 0.018 | 0.0105 ± 0.0078 | -0.042 ± 0.05 | -0.0385 ± 0.025 | -0.047 ± 0.031 | -0.031 ± 0.0057 | -0.019 ± 0.025 | -0.0445 ± 0.012 | -0.0095 ± 0.026 | -0.0105 ± 0.026 | -0.0105 ± 0.04 | -0.019 ± 0.037 | -0.0445 ± 0.021 |
| lMphg:CCL3/MIP-1alpha | 0.0325 ± 0.035 | 0.112 ± 0.013 | -0.0315 ± 0.005 | -0.013 ± 0.0028 | -0.004 ± 0.045 | -0.007 ± 0.0042 | 0.0345 ± 0.023 | -0.019 ± 0.014 | -0.027 ± 0.014 | 0.0165 ± 0.032 | 0.003 ± 0.021 | 0.0185 ± 0.08 | 0.004 ± 0.013 | -0.0125 ± 0.049 | -0.0075 ± 0.00071 | -0.0115 ± 0.018 | 0.0355 ± 0.047 | -0.0295 ± 0.0064 | -0.0295 ± 0.021 |
